# pEC50: −log10 of the molar value.
# Tested on: PKC mediated IL-2 production
# Assay: IL-2 ELISA, human primary T cell, anti CD3+CD28+
# Type: cell-based
# Details: Homo sapiens, T-cell, 24 h, human primary T cells stimulated with αCD3 and αCD28, 24 hours
# Description: Compounds 1-328 were tested in a whole cell functional assay for PKC mediated IL-2 production as follows. Human primary T cell isolation and culture: Human primary T cells were prepared as follows. Whole blood was obtained from a healthy volunteer, mixed 1:1 with PBS, layered on to Ficoll Hypaque (Amersham Pharmacia Biotech, Piscataway, N.J., Catalog #17-1440-03) in 2:1 blood/PBS:ficoll ratio and centrifuged for 30 minutes at 4° C. at 1750 rpm. The cells at the serum: ficoll interface were recovered and washed twice with 5 volumes of PBS. These freshly isolated human peripheral blood mononuclear cells were cultured in Yssel's medium containing 40 U/ml IL2 in a flask pre-coated with […] αCD3 and 5 μg/ml αCD28 (Anti-Human CD3, BD Pharmingen Catalog #555336, Anti-Human CD28, Beckman Coulter Catalog #IM1376). The cells were stimulated for 3-4 days, then transferred to a fresh flask and maintained in RPMI (RPMI-1640 with L-Glutamine; Mediatech, Inc., Herndon Va., cat. #10-040-CM) with 10% FBS and 40 U/ml IL-2. The primary T-cells were then washed twice with PBS to remove the IL-2.
# Primary T cell stimulation and IL2 ELISA: Human primary T cells (100,000 cells per well) were pre-incubated with or without test compound in Yssel's medium for 1 hour at 37° C. Cells were then stimulated by transferring them to round-bottom 96-well plates pre-coated with […] αCD3 and 5 μg/ml αCD28. For counter assay, cells were instead stimulated by adding 8× stock solutions of PMA and ionomycin in Yssels (for final concentrations of 0.5 ng/ml PMA and 0.1 uM ionomycin, both from Calbiochem). Cells were incubated at 37° C. for 24 hours before 100 μL supernatants were harvested for quantification of IL-2 by ELISA using Human IL-2 Duoset ELISA Kit from R and D Systems, Cat. # DY202E.
row,SMILES,pEC50
1,"Cn1nnn(-c2cc(Nc3ncc(F)c(N[C@@H]4C[C@@H]5CC(F)(F)CN5C(C)(C)C4)n3)c(F)cc2C2CC2)c1=O [Compound 45, 1-(5-(4-((7R,8aR)-2,2-difluoro-octahydro-5,5-dimethylindolizin-7-ylamino)-5-fluoropyrimidin-2-ylamino)-2-cyclopropyl-4-fluorophenyl)-4-methyl-1H-tetrazol-5(4H)-one]",5.00 to 6.00
2,"CC1(C)C[C@H](Nc2nc(Nc3cc(-n4cnnn4)c(C4CC4)cc3F)ncc2F)C[C@@H]2CC(F)(F)CN21 [Compound 46, N^2-(4-cyclopropyl-2-fluoro-5-(1H-tetrazol-1-yl)phenyl)-5-fluoro-N^4-((7R,8aR)-2,2-difluoro-octahydro-5,5-dimethylindolizin-7-yl)pyrimidine-2,4-diamine]",6.00 to 6.30
3,"Cn1nnn(-c2cc(Nc3ncc(F)c(N[C@H]4C[C@@H]5C[C@@H](F)CN5C(C)(C)C4)n3)c(F)cc2C2CC2)c1=O [Compound 65, 1-(5-(4-((2R,7S,8aR)-2-fluoro-octahydro-5,5-dimethylindolizin-7-ylamino)-5-fluoropyrimidin-2-ylamino)-2-cyclopropyl-4-fluorophenyl)-4-methyl-1H-tetrazol-5(4H)-one]",5.00 to 6.00
4,"CC1C(Nc2nc(Nc3cc(-n4nnn(C)c4=O)c(C4CC4)cc3F)ncc2F)CC(C)(C)N2CCCC12 (stereo not shown) [Compound 69, 1-(5-(5-Fluoro-4-(octahydro-5,5,8-trimethylindolizin-7-ylamino)pyrimidin-2-ylamino)-2-cyclopropyl-4-fluorophenyl)-4-methyl-1H-tetrazol-5(4H)-one]",6.00 to 6.30
5,"Cc1nnnn1-c1cc(Nc2ncc(F)c(NC3CC(C)(C)N4CCCC4C3C)n2)ccc1F (stereo not shown) [Compound 70, 5-Fluoro-N2-(4-fluoro-3-(5-methyl-1H-tetrazol-1-yl)phenyl)-N4-(octahydro-5,5,8-trimethylindolizin-7-yl)pyrimidine-2,4-diamine]",5.00 to 6.00
6,CC1(C)C[C@H](Nc2nc(Nc3cc(S(F)(F)(F)(F)F)ccc3F)ncc2F)C[C@@H]2CCCN21 [Compound 71],6.00 to 6.30
7,CC1(C)C[C@H](Nc2nc(Nc3cc(F)cc(S(F)(F)(F)(F)F)c3)ncc2F)C[C@@H]2CCCN21 [Compound 72],6.00 to 6.30
8,"Cn1nnn(-c2cc(Nc3ncc(F)c(N[C@@H]4C[C@@H]5CCCN5C(C)(C)C4)n3)c(F)cc2OC2COC2)c1=O [Compound 88, 1-(5-(4-((7R,8aS)-octahydro-5,5-dimethylindolizin-7-ylamino)-5-fluoropyrimidin-2-ylamino)-4-fluoro-2-(oxetan-3-yloxy)phenyl)-4-methyl-1H-tetrazol-5(4H)-one]",6.30 to 7.00
9,"Cn1nnn(-c2cc(Nc3ncc(F)c(N[C@@H]4C[C@@H]5CCCN5C(C)(C)C4)n3)c(F)cc2O)c1=O [Compound 89, 1-(5-(4-((7R,8aS)-octahydro-5,5-dimethylindolizin-7-ylamino)-5-fluoropyrimidin-2-ylamino)-4-fluoro-2-hydroxyphenyl)-4-methyl-1H-tetrazol-5(4H)-one]",5.00 to 6.00

# Other lines, results leading:
row,pEC50,SMILES
1,6.30 to 7.00,"Cn1nnn(-c2cc(Nc3ncc(F)c(NC4CC5CCCN5C(C)(C)C4)n3)ccc2OC2CCOCC2)c1=O (stereo not shown) [Compound 51, 1-(5-(5-fluoro-4-(octahydro-5,5-dimethylindolizin-7-ylamino)pyrimidin-2-ylamino)-2-(tetrahydro-2H-pyran-4-yloxy)phenyl)-4-methyl-1H-tetrazol-5(4H)-one]"
2,6.30 to 7.00,"CC1(C)CC(Nc2nc(Nc3ccc(OC4COC4)c(C#N)c3)ncc2F)CC2CCCN21 (stereo not shown) [Compound 63, 5-(5-Fluoro-4-(octahydro-5,5-dimethylindolizin-7-ylamino)pyrimidin-2-ylamino)-2-(oxetan-3-yloxy)benzonitrile]"
3,6.30 to 7.00,"Cn1nnn(-c2cc(Nc3ncc(F)c(N[C@@H]4C[C@@H]5C[C@@H](F)CN5C(C)(C)C4)n3)c(F)cc2C2CC2)c1=O [Compound 64, 1-(5-(4-((2R,7R,8aR)-2-fluoro-octahydro-5,5-dimethylindolizin-7-ylamino)-5-fluoropyrimidin-2-ylamino)-2-cyclopropyl-4-fluorophenyl)-4-methyl-1H-tetrazol-5(4H)-one]"
4,6.30 to 7.00,"Cn1nnn(-c2cc(Nc3ncc(F)c(N[C@@H]4C[C@@H]5C[C@H](F)CN5C(C)(C)C4)n3)c(F)cc2C2CC2)c1=O [Compound 67, 1-(5-(4-((2S,7R,8aR)-2-fluoro-octahydro-5,5-dimethylindolizin-7-ylamino)-5-fluoropyrimidin-2-ylamino)-2-cyclopropyl-4-fluorophenyl)-4-methyl-1H-tetrazol-5(4H)-one]"
5,6.30 to 7.00,"Cn1nnn(-c2cc(Nc3ncc(F)c(N[C@@H]4C[C@@H]5C[C@@H](O)CN5C(C)(C)C4)n3)c(F)cc2C2CC2)c1=O [Compound 68, 1-(5-(4-((2R,7R,8aR)-2-hydroxy-octahydro-5,5-dimethylindolizin-7-ylamino)-5-fluoropyrimidin-2-ylamino)-2-cyclopropyl-4-fluorophenyl)-4-methyl-1H-tetrazol-5(4H)-one]"
6,6.30 to 7.00,"Cn1nnn(-c2cc(Nc3ncc(C#N)c(N[C@@H]4C[C@@H]5CCCN5C(C)(C)C4)n3)c(F)cc2OC(C)(C)CO)c1=O [Compound 84, 4-((7R,8aS)-octahydro-5,5-dimethylindolizin-7-ylamino)-2-(4-(1-hydroxy-2-methylpropan-2-yloxy)-2-fluoro-5-(4,5-dihydro-4-methyl-5-oxotetrazol-1-yl)phenylamino)pyrimidine-5-carbonitrile]"
7,6.30 to 7.00,"Cn1nnn(-c2cc(Nc3ncc(F)c(N[C@@H]4C[C@@H]5CCCN5C(C)(C)C4)n3)c(F)cc2OC(C)(C)CO)c1=O [Compound 85, 1-(2-(1-hydroxy-2-methylpropan-2-yloxy)-5-(4-((7R,8aS)-octahydro-5,5-dimethylindolizin-7-ylamino)-5-fluoropyrimidin-2-ylamino)-4-fluorophenyl)-4-methyl-1H-tetrazol-5(4H)-one]"
8,> 7.00,"Cn1nnn(-c2cc(Nc3ncc(F)c(N[C@@H]4C[C@@H]5CCCN5C(C)(C)C4)n3)c(F)cc2Br)c1=O [Compound 91, 1-(5-(4-((7R,8aS)-octahydro-5,5-dimethylindolizin-7-ylamino)-5-fluoropyrimidin-2-ylamino)-2-bromo-4-fluorophenyl)-4-methyl-1H-tetrazol-5(4H)-one]"
9,> 7.00,"C=Cc1cc(F)c(Nc2ncc(F)c(N[C@@H]3C[C@@H]4CCCN4C(C)(C)C3)n2)cc1-n1nnn(C)c1=O [Compound 92, 1-(5-(4-((7R,8aS)-octahydro-5,5-dimethylindolizin-7-ylamino)-5-fluoropyrimidin-2-ylamino)-4-fluoro-2-vinylphenyl)-4-methyl-1H-tetrazol-5(4H)-one]"

# Same assay, conditions: human primary T cells stimulated with αCD3 and αCD28, 24 hours
row,pEC50,SMILES
1,6.30 to 7.00,CC(=O)N(C)c1cc(Nc2ncc(F)c(NC3CC(C)(C)N4CCCC4C3C)n2)c(F)cc1C1CC1 (stereo not shown) [Compound 73]
2,6.30 to 7.00,CC1C(Nc2nc(Nc3cc(N(C)C(=O)N(C)C)c(C4CC4)cc3F)ncc2F)CC(C)(C)N2CCCC12 (stereo not shown) [Compound 74]
3,6.30 to 7.00,CC1C(Nc2nc(Nc3cc(OC(F)F)c(C4CC4)cc3F)ncc2F)CC(C)(C)N2CCCC12 (stereo not shown) [Compound 75]

row,SMILES,pEC50
1,C[C@@H](O)COc1cc(F)c(Nc2ncc(F)c(N[C@@H]3C[C@@H]4CCCN4C(C)(C)C3)n2)cc1-n1nnn(C)c1=O [Compound 82],> 7.00

# — patent US9682976B2, “Protein kinase C inhibitors and uses thereof” (Rigel Pharmaceuticals, Inc., priority 2012, dated 2017)
